Consider one compound from ChEMBL document CHEMBL1132953, “Design and synthesis of pyrrolidine-5,5-trans-lactams (5-oxo-hexahydro-pyrrolo[3,2-b]pyrroles) as novel mechanism-based inhibitors of human cytomegalovirus protease. 1. The alpha-methyl-trans-lactam template” (J Med Chem, 2000).

Experiment [1] in a line: Tested for inhibitory activity against elastase.
The next experiment concerns the target Prothrombin (Homo sapiens, UniProt P00734). The experiment in a line: Tested for inhibitory activity against Thrombin.

As to `CC(=O)OCC(=O)N1C(=O)C[C@@H]2[C@@H]1CCN2C(=O)OCc1ccccc1`, the IC50 – broadly, the concentration at which inhibition is half-maximal – in experiment [1] is 7.58 µM; against Prothrombin, 6.2 µM.
